# Read-outs that look alike come from different tables or passages of the source.
# How the values were obtained:
# [1] = system: MCF-7 cells; experiment: Cellular proliferation EdU assay, MCF-7; type: cell-based; settings: Homo sapiens, MCF7, 48 h, read-out: MCF-7 IC50
# Method: (§1) Compounds were tested to assess inhibition of cellular proliferation in the breast cancer cell line MCF-7 and the CCNE1-amplified ovarian cell line OVCAR3.
# (§2) MCF-7 and OVCAR3 cells in RPMI supplemented with 10% Fetal bovine serum were seeded into 384-well plates (Greiner, Kremsmunster, Austria; 781091), 30 μL/well, using a WellMate. The MCF7 and OVCAR3 cells were seeded at 800 and 1200 cells/well, respectively. Test compounds were added to the wells using an Echo 555 liquid handler and the plates were placed in incubator maintained at 37° C. and 5% CO2 and incubated for two days. On Day 2, an EdU assay was performed following the manufacturer's protocol (Thermo Fisher, C10351). The cells were read on an Acumen eX3 instrument. The IC50 values of test compounds were determined in Genedata by assessing the ratio of signal intensity at 488 nm to the area of signal at 405 nm.
# [2] = system: OVCAR3 cells; experiment: Cellular proliferation EdU assay, OVCAR3; type: cell-based, human; settings: Homo sapiens, OVCAR-3, 48 h, read-out: OVCAR3 IC50
# Method: as §1, §2
# [3] = system: POLR2A Ser2 phosphorylation (CDK9); experiment: POLR2A Ser2 phosphorylation imaging assay in MCF-7 cells; type: cell-based; settings: Homo sapiens, MCF7, 2 h, read-out: POLR2A Ser2 phosphorylation IC50
# Method: Compounds were tested to assess their effect on CDK9 activity in a cellular context. […] During the cell cycle, CDK9 is a component of a multiprotein complex that phosphorylates POLR2A Ser2 which results in transcription elongation.
# […] were fixed by addition of 40 μL/well of 8% paraformaldehyde and incubated for 10 minutes at room temperature. The plates were washed three times with 50 μL/well PBS using a Biotek EL406 plate washer and then permeabilized for 10 minutes at room temperature in 0.3% Triton X100 in PBS. After washing as before, the plates were blocked using 30 μL/well of 2% BSA (w/v) in PBS-T for over 30 minutes at room temperature. […] After washing in PBS as before, leaving each well in 40 μL of PBS, the plates were sealed and imaged on a Cell Insight imaging system (Thermo) with a 10× objective and 2 fields of view per well. POLR2A Ser2levels were normalized to controls and the IC50 values of test compounds determined using Genedata Screener software.
# [4] = Aqueous thermodynamic solubility, shake-flask; type: physicochemical; settings: aqueous phosphate buffer, 25 °C, pH 7.4, aqueous buffer, thermodynamic from solid, phosphate buffer 0.1 M, pH 7.4, 24 hours
# Method: The DMSO was evaporated and the dried compounds were equilibrated in glass vials in aqueous phosphate buffer (0.1 M, pH 7.4) for 24 hours at 25° C. under constant stirring. The portion with the dissolved compound was then separated from the remainder through a double centrifugation with a tip wash in between to ensure that no residues of the dried compound were interfering. The solutions were diluted with purified water before quantification using UPLC/MS/MS.
# [5] = system: NPM phosphorylation (Thr199, CDK2-cyclin E complex); experiment: NPM phosphorylation imaging assay in MCF-7 cells; type: cell-based; settings: Homo sapiens, MCF7, 2 hours, 4N DNA cells
# Method: Compounds were tested to assess the effects of CDK2 inhibition in a cellular context. […] During the cell cycle, the CDK2-cyclin E complex phosphorylates NPM at Thr199 which is a prerequisite step for initiation of centrosome duplication.
# The cells were fixed by addition of 40 μL/well of 8% paraformaldehyde and incubated at room temperature for 10 minutes. The plates were washed three times with 50 μL/well PBS using a Biotek EL406 plate washer and then permeabilized for 10 minutes at room temperature in 0.3% Triton X100 in PBS. After washing as before, the plates were blocked using 30 μL/well of 2% BSA (w/v) in PBS-T for at least 30 minutes at room temperature. […] Cells containing 4N DNA were selected using the Hoechst staining. Phospho-NPM levels were normalized to controls and the IC50 values of test compounds determined using Genedata Screener software.
# [6] = target: CDK1:CCNB1 (Homo sapiens (Human), UniProt P06493); experiment: NanoBRET assay in MCF-7 cells, CDK1; type: cell-based; settings: CDK1 IC50, NanoBRET, transfected MCF-7 cells, 2 hours; n = 1 or average
# Method: (§3) Compounds were tested in breast cancer cell line MCF-7 to assess inhibition of CDK1, CDK2, and CDK4 activity. MCF-7 cells transiently transfected with CDK1:CCNB1, CDK2:CCNE1, or CDK4:CCND1 were harvested at a density of 1E5 cells/mL in complete media, seeded 20 μL/well into 384-well Greiner 784080 plates using a Multidrop Combi, and incubated overnight at 37° C. and 5% CO2. The next day media were evacuated from the wells using the Bluewasher centrifugal plate washer (Bluecatbio) and 10 μL/well phenol red free OptiMEM was then added using a Multidrop Combi. […] Immediately after compound addition, a Tecan HP300 dispensor was used to dispense the relevant NanoBRET™ tracer to the CDK1 wells (12.5 nl, 400 μM, NanoBRET™ TE Tracer K-9), the CDK2 wells (12.5 nl, 200 μM, NanoBRET™ TE Tracer K-9), and the CDK4 wells (8 nl, 100 μM, NanoBRET™ TE Tracer K-7) and the plates were incubated for 2 hours at 37° C. and 5% CO2. The plates were allowed to cool for 10 minutes at room temperature and 5 μL/well of TE Nano-Glo®Substrate/Inhibitor at 2.4 μM and 1:500 respectively (N2162 Promega) was added. The plates were incubated in subdued lighting for 10 minutes and then read on a Pherastar FS plate reader (BMG Technologies) using a NanoBRET™ filter module (460±80 nm/610 nm-LP). The ratio values were normalized to controls and the IC50 values of test compounds determined using Genedata Screener software.
# [7] = target: CDK2:CCNE1 (Homo sapiens (Human), UniProt P24941); experiment: NanoBRET assay in MCF-7 cells, CDK2; type: cell-based; settings: transfected MCF-7 cells, 2 hours, n = 1 or average
# Method: as §3, with “MCF-7 cells transiently transfected with CDK1:CCNB1, CDK2:CCNE1, or CDK4:CCND1 were harvested at a density of 1E5 cells/mL in complete media, seeded 20 μL/well into 384-well Greiner 784080 plates using a Multidrop Combi, and incubated overnight at 37° C. and 5% CO2.” left out, “The plates were allowed to cool for 10 minutes at room temperature and 5 μL/well of TE Nano-Glo®Substrate/Inhibitor at 2.4 μM and 1:500 respectively (N2162 Promega) was added.” left out
# [8] = target: CDK4:CCND1 (Homo sapiens (Human), UniProt P11802); experiment: NanoBRET assay in MCF-7 cells, CDK4; type: cell-based; settings: CDK4 IC50, NanoBRET, transfected MCF-7 cells, 2 hours; n = 1 or average
# Method: as §3
# Chain of CDK1:CCNB1 (P06493 whole entry): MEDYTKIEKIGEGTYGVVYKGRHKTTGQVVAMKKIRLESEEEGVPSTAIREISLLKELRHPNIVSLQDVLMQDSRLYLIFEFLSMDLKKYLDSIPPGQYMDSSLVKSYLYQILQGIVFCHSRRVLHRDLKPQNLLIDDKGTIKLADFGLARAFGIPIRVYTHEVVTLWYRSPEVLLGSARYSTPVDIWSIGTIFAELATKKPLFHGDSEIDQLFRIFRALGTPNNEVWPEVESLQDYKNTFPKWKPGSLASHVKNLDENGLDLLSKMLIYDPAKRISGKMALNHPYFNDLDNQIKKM
# Chain of CDK1:CCNB1 (P14635 whole entry partner): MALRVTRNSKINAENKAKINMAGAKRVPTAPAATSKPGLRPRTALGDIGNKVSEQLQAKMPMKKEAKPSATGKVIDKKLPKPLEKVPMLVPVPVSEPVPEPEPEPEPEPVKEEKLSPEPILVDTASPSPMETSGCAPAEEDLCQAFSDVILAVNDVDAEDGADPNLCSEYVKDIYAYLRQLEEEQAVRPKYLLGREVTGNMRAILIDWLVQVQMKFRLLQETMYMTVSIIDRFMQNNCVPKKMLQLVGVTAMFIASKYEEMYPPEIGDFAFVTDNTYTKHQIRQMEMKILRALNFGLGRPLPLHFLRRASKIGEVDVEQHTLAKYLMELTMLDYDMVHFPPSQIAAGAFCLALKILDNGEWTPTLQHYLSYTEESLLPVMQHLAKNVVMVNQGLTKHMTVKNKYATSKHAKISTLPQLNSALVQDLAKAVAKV
# Chain of CDK4:CCND1 (P11802 whole entry): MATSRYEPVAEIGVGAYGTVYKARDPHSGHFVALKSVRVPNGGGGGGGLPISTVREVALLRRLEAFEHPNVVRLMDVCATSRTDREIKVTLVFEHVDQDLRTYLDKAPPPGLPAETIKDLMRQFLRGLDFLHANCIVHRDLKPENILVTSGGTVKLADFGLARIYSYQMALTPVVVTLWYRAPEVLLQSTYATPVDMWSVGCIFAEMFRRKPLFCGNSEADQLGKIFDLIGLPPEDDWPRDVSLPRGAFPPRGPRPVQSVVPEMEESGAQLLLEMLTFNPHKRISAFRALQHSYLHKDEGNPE
# Chain of CDK4:CCND1 (P24385 whole entry partner): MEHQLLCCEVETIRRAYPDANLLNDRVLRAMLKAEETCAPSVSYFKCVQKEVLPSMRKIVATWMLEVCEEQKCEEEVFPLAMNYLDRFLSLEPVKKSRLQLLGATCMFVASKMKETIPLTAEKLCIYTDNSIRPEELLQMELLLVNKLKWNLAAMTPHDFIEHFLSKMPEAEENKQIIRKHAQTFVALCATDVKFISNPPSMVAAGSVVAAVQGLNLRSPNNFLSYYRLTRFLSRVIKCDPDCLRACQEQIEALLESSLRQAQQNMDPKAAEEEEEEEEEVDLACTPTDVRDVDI
"IC50 ([3]; MCF-7 cells, 2 hours) [µM]",Structure (SMILES),"IC50 ([1]; EdU assay, two days) [µM]","IC50 ([2]; EdU assay, two days) [µM]",IC50 [3] [µM],solubility at 24 h [4] [µM],IC50 [5] [µM],IC50 [1] [µM],IC50 [6] [µM],IC50 [2] [µM],IC50 [7] [µM],IC50 [8] [µM]
–,"CCNS(=O)(=O)N1CC[C@H](Nc2nc(N[C@H](CC)[C@@H](C)O)nc3c2ncn3CC)C1 (mixture of isomers) [Example 13, (S)—N-ethyl-3-((9-ethyl-2-(((2R,3R)-2-hydroxypentan-3-yl)amino)-9H-purin-6-yl)amino)pyrrolidine-1-sulfonamide]",0.49,0.202,> 30,–,–,–,–,–,–,–
> 30,"CC[C@H](Nc1nc(N[C@H]2CCN(S(=O)(=O)NCC(F)F)C2)c2ncn(CC)c2n1)[C@@H](C)O [Example 5, (S)—N-(2,2-difluoroethyl)-3-((9-ethyl-2-(((2R,3S)-2-hydroxypentan-3-yl)amino)-9H-purin-6-yl)amino)pyrrolidine-1-sulfonamide]",0.917,0.154,–,> 1000,–,–,–,–,–,–
–,"CCNS(=O)(=O)N1CC[C@H](Nc2nc(N[C@@H](CC)C(C)=O)nc3c2ncn3CC)C1 [Example 7, (S)—N-ethyl-3-((9-ethyl-2-(((S)-2-oxopentan-3-yl)amino)-9H-purin-6-yl)amino)pyrrolidine-1-sulfonamide]",–,–,24.2,220,–,0.486,0.591,0.203,0.013,19.1
–,"CCNS(=O)(=O)N1CC[C@H](Nc2nc(N[C@@H](CC)[C@H](C)O)nc3c2ncn3CC)C1 [Example 8, (S)—N-ethyl-3-((9-ethyl-2-(((2S,3S)-2-hydroxypentan-3-yl)amino)-9H-purin-6-yl)amino)pyrrolidine-1-sulfonamide]",4.77,1.58,> 30,–,–,–,–,–,–,–
–,"CCNS(=O)(=O)N1CC[C@H](Nc2nc(N[C@H](CC)[C@H](C)O)nc3c2ncn3CC)C1 [Example 11, (S)—N-ethyl-3-((9-ethyl-2-(((2S,3R)-2-hydroxypentan-3-yl)amino)-9H-purin-6-yl)amino)pyrrolidine-1-sulfonamide]",3.31,1.4,> 30,–,–,–,–,–,–,–
–,"CCNS(=O)(=O)N1CC[C@H](Nc2nc(N[C@H](CC)C(C)=O)nc3c2ncn3CC)C1 [Example 12, (S)—N-ethyl-3-((9-ethyl-2-(((R)-2-oxopentan-3-yl)amino)-9H-purin-6-yl)amino)pyrrolidine-1-sulfonamide]",–,–,> 30,955,–,3.4,7.48,1.56,0.088,> 29.7
23.6,"CC[C@H](Nc1nc(N[C@H]2CCN(S(=O)(=O)N[C@@H]3CCOC3)C2)c2ncn(CC)c2n1)[C@@H](C)O [Example 18, (S)-3-((9-ethyl-2-(((2R,3S)-2-hydroxypentan-3-yl)amino)-9H-purin-6-yl)amino)-N—((R)-tetrahydrofuran-3-yl)pyrrolidine-1-sulfonamide]",–,0.169,–,726,–,–,–,–,–,–
> 30,"CC[C@H](Nc1nc(N[C@H]2CCN(S(=O)(=O)N[C@H]3CCOC3)C2)c2ncn(CC)c2n1)[C@@H](C)O [Example 22, (S)-3-((9-ethyl-2-(((2R,3S)-2-hydroxypentan-3-yl)amino)-9H-purin-6-yl)amino)-N—((S)-tetrahydrofuran-3-yl)pyrrolidine-1-sulfonamide]",1.44,0.298,–,> 1000,–,–,–,–,–,–
> 30,"CC[C@H](Nc1nc(N[C@H]2CCN(S(=O)(=O)N3CC(F)C3)C2)c2ncn(CC)c2n1)[C@@H](C)O [Example 24, (2R,3S)-3-((9-ethyl-6-(((S)-1-((3-fluoroazetidin-1-yl)sulfonyl)pyrrolidin-3-yl)amino)-9H-purin-2-yl)amino)pentan-2-ol]",2.93,0.856,–,466,–,–,–,–,–,–

Structure (SMILES),"IC50 ([3]; MCF-7 cells, 2 hours) [µM]","IC50 ([1]; EdU assay, two days) [µM]","IC50 ([2]; EdU assay, two days) [µM]",IC50 [3] [µM],solubility at 24 h [4] [µM],IC50 [5] [µM],IC50 [1] [µM],IC50 [6] [µM],IC50 [2] [µM],IC50 [7] [µM],IC50 [8] [µM]
"CC[C@H](Nc1nc(N[C@H]2CCN(S(=O)(=O)NCC(F)(F)F)C2)c2ncn(CC)c2n1)[C@@H](C)O [Example 4, (S)-3-((9-ethyl-2-(((2R,3S)-2-hydroxypentan-3-yl)amino)-9H-purin-6-yl)amino)-N-(2,2,2-trifluoroethyl)pyrrolidine-1-sulfonamide]",> 30,0.685,0.294,–,57,0.164,–,–,–,–,–
"CC[C@H](Nc1nc(N[C@H]2CCN(S(=O)(=O)NC)C2)c2ncn(CC)c2n1)C(C)=O [Example 45, (S)-3-((9-ethyl-2-(((S)-2-oxopentan-3-yl)amino)-9H-purin-6-yl)-amino)-N-methylpyrrolidine-1-sulfonamide]",> 26.7,0.944,0.359,–,–,–,–,1.89,–,0.039,> 29.7
"CC[C@H](Nc1nc(N[C@H]2CCN(S(=O)(=O)NC)C2)c2ncn(CF)c2n1)[C@@H](C)O [Example 54, (S)-3-((9-(fluoromethyl)-2-(((2R,3S)-2-hydroxypentan-3-yl)amino)-9H-purin-6-yl)amino)-N-methylpyrrolidine-1-sulfonamide]",> 30,1.37,0.756,–,593,0.334,–,–,–,–,–
